From paper PMC7415619 (European journal of medicinal chemistry, 2020)
Converted amounts (≈) assume the structure as drawn. Where two headings read alike, the source gives them in different places.

What was measured:
[1] = tested on: MDR-TB and XDR-TB strains; test: microbe, parasite or virus in culture; type: cell-based; details: Mycobacterium tuberculosis
[2] = molecular target: FAAL28 (Mycobacterium tuberculosis, UniProt P9WQ59); test: Coupled continuous enzyme kinetic assay; type: biochemical; details: for Ki^app FAAL28: apparent Ki, Morrison equation, 33 μM tetradecanoic acid
Chain of FAAL28 (P9WQ59 whole entry): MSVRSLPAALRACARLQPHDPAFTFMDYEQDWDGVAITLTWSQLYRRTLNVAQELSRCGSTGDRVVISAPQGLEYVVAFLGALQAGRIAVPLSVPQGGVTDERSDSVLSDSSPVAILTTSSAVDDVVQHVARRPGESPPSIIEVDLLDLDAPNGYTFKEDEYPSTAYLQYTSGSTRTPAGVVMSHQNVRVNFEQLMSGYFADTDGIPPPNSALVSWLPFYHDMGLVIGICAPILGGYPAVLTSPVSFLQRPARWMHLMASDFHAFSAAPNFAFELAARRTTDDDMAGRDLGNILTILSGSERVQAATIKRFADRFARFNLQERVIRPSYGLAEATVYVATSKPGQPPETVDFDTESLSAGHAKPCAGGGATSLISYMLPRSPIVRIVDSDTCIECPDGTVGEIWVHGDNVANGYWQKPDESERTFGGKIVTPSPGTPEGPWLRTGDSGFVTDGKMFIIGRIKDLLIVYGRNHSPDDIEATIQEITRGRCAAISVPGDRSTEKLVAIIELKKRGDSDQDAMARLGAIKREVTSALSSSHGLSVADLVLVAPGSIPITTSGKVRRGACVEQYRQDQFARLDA

[3] = molecular target: FACL19 (Mycobacterium tuberculosis, UniProt P9WQ51); test: Coupled continuous enzyme kinetic assay; type: biochemical; details: for Ki^app FACL19: apparent Ki, Morrison equation, 250 μM dodecanoic acid
Chain of FACL19 (P9WQ51 whole entry): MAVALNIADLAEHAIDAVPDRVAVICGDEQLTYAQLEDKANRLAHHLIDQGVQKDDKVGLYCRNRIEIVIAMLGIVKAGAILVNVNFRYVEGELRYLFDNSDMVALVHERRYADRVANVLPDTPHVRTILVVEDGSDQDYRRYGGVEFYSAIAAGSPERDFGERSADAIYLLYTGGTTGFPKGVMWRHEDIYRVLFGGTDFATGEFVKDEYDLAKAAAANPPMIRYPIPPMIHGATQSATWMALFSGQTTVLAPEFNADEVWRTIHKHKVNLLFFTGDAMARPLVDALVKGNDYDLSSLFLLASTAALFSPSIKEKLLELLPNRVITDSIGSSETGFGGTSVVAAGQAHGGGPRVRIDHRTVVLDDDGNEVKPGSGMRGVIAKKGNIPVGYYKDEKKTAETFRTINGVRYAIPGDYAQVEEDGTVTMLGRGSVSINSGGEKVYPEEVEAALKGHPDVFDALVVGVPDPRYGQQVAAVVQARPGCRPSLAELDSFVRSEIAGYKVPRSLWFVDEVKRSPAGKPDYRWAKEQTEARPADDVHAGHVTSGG

[4] = tested on: Mtb H37Rv; test: Minimum inhibitory concentration, broth microdilution, whole-cell activity; type: cell-based, Mycobacterium tuberculosis; details: for MIC: Mycobacterium tuberculosis, H37RV; for MIC GAST: Mtb H37Rv, GAST medium, MIC = >99% inhibition of cell growth
[5] = tested on: Mtb; details: cited from earlier work
[6] = tested on: Vero cells; test: Cytotoxicity, MTT assay; details: read-out: Cytotox IC50, Vero monkey cells, 72 h
[7] = read-out: MICs against MDR-TB and XDR-TB panel in both media
[8] = read-out: MICs against MDR and XDR Mtb panel in 7H9 medium
[9] = read-out: MIC 7H9, Mtb H37Rv, 7H9 medium
[10] = read-out: MIC 7H9/palmitate, Mtb H37Rv, 7H9/palmitate medium

With `Nc1ncnc2c1ncn2[C@@H]1O[C@H](COS(=O)(=O)NC(=O)CCCCCCCCCCOc2ccccc2)[C@@H](O)[C@H]1O` [Compound 32, 5′-O-[N-(11-Phenoxyundecanoyl)sulfamoyl]adenosine] the MIC [1, 7] was 3.13 to 12.5 µM (≈ 1.9 to 7.58 µg/mL), the “selectivity for FAAL28 over FACL19” value ([2]; ratio of apparent Ki values) was “greater than 142 fold” and the “Ki^app FACL19” value [3] was “completely inactive”.

`CCCCCCCCCCCCCC(=O)NS(=O)(=O)OC[C@H]1O[C@@H](n2cnc3c(N)ncnc32)[C@H](O)[C@@H]1O` [Compound 17, 5′-O-[N-(Tetradecanoyl)sulfamoyl]adenosine] showed an MIC [1, 8] of 3.13 to 12.5 µM (≈ 1.74 to 6.96 µg/mL).

For `Nc1ncnc2c1ncn2[C@@H]1O[C@H](COS(=O)(=O)NC(=O)CCCCCCCCCCC(=O)O)[C@@H](O)[C@H]1O` [Compound 31, 5′-O-[N-(11-Carboxyundecanoyl)sulfamoyl]adenosine], the Ki [2] was over 100 µM, the MIC [4, 9] was over 100 µM and the MIC [4, 10] was over 100 µM. It also gave a Ki [3] of over 100 µM.

Work on `NCCCCCCCCCCCC(=O)NS(=O)(=O)OC[C@H]1O[C@@H](n2cnc3c(N)ncnc32)[C@H](O)[C@@H]1O` [Compound 29, 5′-O-[N-(12-Aminododecanoyl)sulfamoyl]adenosine] yielded an MIC [4, 10] of 12.5 to 25 µM (≈ 6.8 to 13.6 µg/mL).

With `[N-]=[N+]=NCCCCCCCCCCCC(=O)NS(=O)(=O)OC[C@H]1O[C@@H](n2cnc3c(N)ncnc32)[C@H](O)[C@@H]1O` [Compound 28, 5′-O-[N-(12-Azidododecanoyl)sulfamoyl]adenosine] the “MIC GAST” value [4] was 0.098 to 3.13 µM and the MIC [4, 9] was 12.5 to 25 µM (≈ 7.12 to 14.2 µg/mL).

In the case of `Nc1ncnc2c1ncn2[C@@H]1O[C@H](CNS(=O)(=O)NC(=O)CCCCCCCCCCOc2ccccc2)[C@@H](O)[C@H]1O` [Compound 83, 5′-deoxy-5′-{N-[(11-Phenoxyundecanoyl)sulfamoyl]amino} adenosine], the “fold decrease in potency for FAAL28 relative to 32” value [2] is reported as 4 fold and the “Ki^app FACL19” value [3] is reported as “no inhibition”.

For `C[C@H](CCC(=O)NS(=O)(=O)OC[C@H]1O[C@@H](n2cnc3c(N)ncnc32)[C@H](O)[C@@H]1O)[C@H]1CC[C@H]2[C@@H]3CC[C@@H]4C[C@H](O)CC[C@]4(C)[C@H]3CC[C@]12C` [Compound 11, reference compound], the “MIC against Mtb” value [5] is listed as 50 µM (≈ 35.2 µg/mL).

Compound `CCCCCCCCCCCCCCCC(=O)NS(=O)(=O)OC[C@H]1O[C@@H](n2cnc3c(N)ncnc32)[C@H](O)[C@@H]1O` [Compound 18, 5′-O-[N-(Palmitoyl)sulfamoyl]adenosine] has a Ki [3] of 3.2 µM.

Compound `CCCCCCCCCCCCCCCCCCCC(=O)NS(=O)(=O)OC[C@H]1O[C@@H](n2cnc3c(N)ncnc32)[C@H](O)[C@@H]1O` [Compound 20, 5′-O-[N-(Icosanoyl)sulfamoyl]adenosine] has an IC50 [6] of 100 nM.

With `CCCCCCCCCC[C@H](C)C(=O)NS(=O)(=O)OC[C@H]1O[C@@H](n2cnc3c(N)ncnc32)[C@H](O)[C@@H]1O` [Compound 34, 5′-O-{N-[(S)-2-Methylodecanoyl]sulfamoyl}adenosine] the Ki [2] was over 100 µM, the MIC [4, 9] was over 100 µM and the MIC [4, 10] was over 100 µM. It also gave a Ki [3] of over 100 µM.

In the case of `Nc1ncnc2c1ncn2[C@@H]1O[C@H](COS(=O)(=O)NC(=O)CCCCCCCCCOc2ccccc2)[C@@H](O)[C@H]1O` [Compound 38, 5′-O-[N-(10-Phenoxydecanoyl)sulfamoyl]adenosine], the “fold decrease in potency for FAAL28 relative to 32” value [2] is reported as 10 fold.

With `CCCCCCCCC[C@@H]1C[C@@H]1C(=O)NS(=O)(=O)OC[C@H]1O[C@@H](n2cnc3c(N)ncnc32)[C@H](O)[C@@H]1O` [Compound 26, 5′-O-{N-[(1S,2R)-2-Nonylcyclopropanecarbonyl]sulfamoyl} adenosine] the “Ki^app FAAL28” value [2] was “weak inhibition”.

In the case of `COC(=O)CCCCCCCCCCC(=O)NS(=O)(=O)OC[C@H]1O[C@@H](n2cnc3c(N)ncnc32)[C@H](O)[C@@H]1O` [Compound 30, 5′-O-[N-(12-Methoxy-12-oxododecanoyl)sulfamoyl]adenosine], the Ki [2] is reported as over 100 µM, the “MIC GAST” value [4] is reported as 3.13 µM (≈ 1.79 µg/mL) and the MIC [4, 9] is reported as 100 µM (≈ 57.3 µg/mL). It also gave an MIC [4, 10] of over 100 µM and a Ki [3] of over 100 µM.

With `CCCCCCCCCOCC(=O)NS(=O)(=O)OC[C@H]1O[C@@H](n2cnc3c(N)ncnc32)[C@H](O)[C@@H]1O` [Compound 36, 5′-O-[N-2-(Nonyloxy)acetylsulfamoyl]adenosine] the “MIC GAST” value [4] was 0.098 to 0.19 µM and the MIC [4, 10] was 25 to 50 µM (≈ 13.3 to 26.5 µg/mL).

In the case of `CCCCCCCCCC[C@@H](C)C(=O)NS(=O)(=O)OC[C@H]1O[C@@H](n2cnc3c(N)ncnc32)[C@H](O)[C@@H]1O` [Compound 33, 5′-O-{N-[(R)-2-Methyldodecanoyl]sulfamoyl}adenosine], the Ki [2] is reported as over 100 µM, the MIC [4, 9] is reported as over 100 µM and the MIC [4, 10] is reported as over 100 µM. The Ki [3] was over 100 µM.

Work on `CCCCCCCCCCC(C)(C)C(=O)NS(=O)(=O)OC[C@H]1O[C@@H](n2cnc3c(N)ncnc32)[C@H](O)[C@@H]1O` [Compound 35, 5′-O-[N-(2,2-Dimethyldodecanoyl)sulfamoyl]adenosine] yielded a Ki [2] of over 100 µM, an MIC [4, 9] of over 100 µM and an MIC [4, 10] of over 100 µM. The Ki [3] was 54.7 µM.

In the case of `Nc1ncnc2c1ncn2[C@@H]1O[C@H](CNS(=O)(=O)OCCCCCCCCCCCOc2ccccc2)[C@@H](O)[C@H]1O` [Compound 93, 5′-Deoxy-5′-{[(11-phenoxyundecyloxy)sulfonyl]amino}adenosine], the “Ki^app FAAL28” value [2] is reported as “ablated biochemical inhibition”.

For `Nc1ncnc2c1ncn2[C@@H]1O[C@H](COS(=O)(=O)NCCCCCCCCCCCOc2ccccc2)[C@@H](O)[C@H]1O` [Compound 89, 5′-O-[N-(11-Phenoxyundecyl)sulfamoyl]adenosine], the “Ki^app FAAL28” value [2] was “ablated biochemical inhibition”.

For `CCCCCCCCCCCC(=O)NS(=O)(=O)OC[C@H]1O[C@@H](n2cnc3c(N)ncnc32)[C@H](O)[C@@H]1O` [Compound 9, 5′-O-[N-(Dodecanoyl)sulfamoyl]adenosine], the MIC [1, 8] is listed as 3.13 to 12.5 µM (≈ 1.65 to 6.61 µg/mL), the “MIC GAST” value [4] is listed as 0.19 to 0.39 µM and the “MIC against Mtb” value [5] is listed as 100 µM (≈ 52.9 µg/mL).

`CCCCCCCCC/C=C/C(=O)NS(=O)(=O)OC[C@H]1O[C@@H](n2cnc3c(N)ncnc32)[C@H](O)[C@@H]1O` [Compound 23, 5′-O-{N-[(E)-Dodec-2-enoyl]sulfamoyl}adenosine] gave an MIC [1, 7] of 3.13 to 12.5 µM (≈ 1.65 to 6.58 µg/mL).

`CCCCC/C=C\CCCC(=O)NS(=O)(=O)OC[C@H]1O[C@@H](n2cnc3c(N)ncnc32)[C@H](O)[C@@H]1O` [Compound 25, 5′-O-{N-[(Z)-Undec-5-enoyl]sulfamoyl}adenosine] showed a Ki [2] of over 100 µM, an MIC [4, 9] of 100 µM (≈ 51.3 µg/mL) and an MIC [4, 10] of 100 µM (≈ 51.3 µg/mL). For the same compound, the Ki [3] was over 100 µM.
